The text below walks through data of paper PMC3600725 (CPT: Pharmacometrics & Systems Pharmacology, 2013).

A short description of data set [1]: Estimated portal vein concentration of ritonavir. The arrangement: species or system human.
The test system of data set [2] is human sandwich-cultured hepatocytes (SCH). Description: Accumulation, BEI and in vitro clearance in human SCH. The data set is classed as in vitro ADME.
The format of data set [3] is in vivo, human.
For data set [4] the following is noted: cited from earlier work.
The conditions of data set [5]: cited from earlier work. This is another data set of the same source.
For a further data set, the target named is MRP2 (Homo sapiens, UniProt Q92887). The following applies: 50 µmol/l MK571; cited from earlier work.
Setting [6] is: 2 × 300 mg oral ritonavir 14 and 2 h before, mean ± SD, n = 3.
The mark [7] stands for this setting: ^99mTc–mebrofenin alone (control), mean ± SD, n = 8.
Where [8] appears, read: from human SCH data, well-stirred model, mean ± SD of n=3 donors.

Entries after “also recorded” stand apart in the source; their conditions may differ. Like-named read-outs stand apart in the source and are kept apart here.

Chain of MRP2 (Q92887 whole entry): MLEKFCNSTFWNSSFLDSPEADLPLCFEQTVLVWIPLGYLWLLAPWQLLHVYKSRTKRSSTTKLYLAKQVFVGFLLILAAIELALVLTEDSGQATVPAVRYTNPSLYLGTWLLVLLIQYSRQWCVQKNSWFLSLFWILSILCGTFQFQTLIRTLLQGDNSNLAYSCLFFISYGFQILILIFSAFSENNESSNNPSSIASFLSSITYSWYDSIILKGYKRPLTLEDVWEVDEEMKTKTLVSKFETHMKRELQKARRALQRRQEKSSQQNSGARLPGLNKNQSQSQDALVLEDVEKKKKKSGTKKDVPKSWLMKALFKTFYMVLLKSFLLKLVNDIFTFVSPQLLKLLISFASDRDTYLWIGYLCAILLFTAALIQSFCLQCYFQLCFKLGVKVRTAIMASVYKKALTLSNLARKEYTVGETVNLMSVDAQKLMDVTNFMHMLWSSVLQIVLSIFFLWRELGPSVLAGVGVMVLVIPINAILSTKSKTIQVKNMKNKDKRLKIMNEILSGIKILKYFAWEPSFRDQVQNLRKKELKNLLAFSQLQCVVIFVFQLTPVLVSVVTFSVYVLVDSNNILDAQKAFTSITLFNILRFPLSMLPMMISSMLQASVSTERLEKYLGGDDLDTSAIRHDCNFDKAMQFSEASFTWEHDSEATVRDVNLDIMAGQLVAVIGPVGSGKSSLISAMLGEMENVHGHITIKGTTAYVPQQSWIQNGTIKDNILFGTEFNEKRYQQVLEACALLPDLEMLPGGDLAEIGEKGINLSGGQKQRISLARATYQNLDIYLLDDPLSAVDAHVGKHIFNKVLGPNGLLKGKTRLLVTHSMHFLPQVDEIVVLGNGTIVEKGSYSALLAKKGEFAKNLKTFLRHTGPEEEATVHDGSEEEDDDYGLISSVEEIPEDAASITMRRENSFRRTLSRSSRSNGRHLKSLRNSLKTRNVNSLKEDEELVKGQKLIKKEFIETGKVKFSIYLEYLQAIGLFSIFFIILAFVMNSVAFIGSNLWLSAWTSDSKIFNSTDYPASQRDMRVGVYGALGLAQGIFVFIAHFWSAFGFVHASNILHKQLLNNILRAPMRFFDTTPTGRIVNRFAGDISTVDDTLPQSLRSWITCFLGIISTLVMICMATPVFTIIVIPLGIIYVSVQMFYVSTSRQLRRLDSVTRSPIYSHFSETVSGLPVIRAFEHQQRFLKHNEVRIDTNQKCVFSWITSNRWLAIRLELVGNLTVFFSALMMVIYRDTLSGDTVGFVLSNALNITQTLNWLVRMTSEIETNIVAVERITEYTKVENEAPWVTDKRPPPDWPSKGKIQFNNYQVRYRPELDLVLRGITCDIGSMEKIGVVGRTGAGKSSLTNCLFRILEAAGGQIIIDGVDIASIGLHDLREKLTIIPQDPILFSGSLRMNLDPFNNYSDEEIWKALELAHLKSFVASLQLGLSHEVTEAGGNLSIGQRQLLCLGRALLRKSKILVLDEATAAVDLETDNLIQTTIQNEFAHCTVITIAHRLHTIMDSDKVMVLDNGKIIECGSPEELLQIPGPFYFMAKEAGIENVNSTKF

For the compound `CC(C)c1nc(CN(C)C(=O)N[C@H](C(=O)N[C@@H](Cc2ccccc2)C[C@H](O)[C@H](Cc2ccccc2)NC(=O)OCc2cncs2)C(C)C)cs1` [Ritonavir], the “Maximum estimated portal vein concentration” value in data set [1] is “up to 45 µmol/l”. The “Total cellular accumulation of ritonavir (Ccell,total)” value in data set [2] (human SCH) is “up to 100 µmol/l”.
`Cc1cc(C)c(NC(=O)CN(CC(=O)[O-])CC(=O)[O-])c(C)c1Br.Cc1cc(C)c(NC(=O)CN(CC(=O)[O-])CC(=O)[O-])c(C)c1Br.[99Tc+4]` [^99mTc–mebrofenin, ^99mTechnetium–mebrofenin]: in data set [3] (setting [6]), the “AUC0–∞ (blood)” value was 4,464 ± 1,861 nCi·min/ml and the Biliary recovery was found to be 72 ± 2 % Dose. Further, in data set [3] (2 × 300 mg ritonavir as compared with control), the “Change in AUCblood,0-∞ (systemic exposure)” value is reported as “significantly greater, by approximately twofold; also recorded: twofold increase”. The Biliary recovery in data set [3] (2 h after single 200 mg oral ritonavir, mean ± SD, n = 7) is given as 59 ± 11 % Dose. Besides, in data set [3] (setting [7]), the “AUC0–∞ (blood)” value was 1,970 ± 311 nCi·min/ml, the Biliary recovery is 75 ± 12 % Dose and the CLbiliary was 12.5 ± 2.5 mL/min/kg. Besides, the Urinary recovery in data set [3] (all groups, unaffected by ritonavir treatment) is on record as ~ 1 % of the administered dose. Further, in data set [3] (control subjects, mean ± SD), the “Hepatic extraction ratio (CLtotal/Qh)” value is 0.80 ± 0.16. In addition, in data set [2] (setting [8]), the “CLbiliary, Predicted In Vivo Clearance” value is on record as 4.4 ± 1.5 mL/min/kg and the “CLuptake, Predicted In Vivo Clearance” value is listed as 10.6 ± 3.1 mL/min/kg. For the same compound, in data set [2] (human SCH vs Table 2 estimate), the “In vitro intrinsic CLuptake lower than semi-PBPK CLuptake,h” value is recorded as ~ 50 fold. Also, the “CLuptake, In Vitro Intrinsic Clearance” value in data set [2] (human SCH, mean ± SD of n=3 donors) is ~ 24 mL/min/kg. For the same compound, the “Hepatic extraction, previous reports” value in data set [4] is recorded as ~ 100%. In data set [5], the “Hepatic elimination half-life, previous reports” value is ~ 15 min and the “Time of maximum liver concentration, reported value” is listed as 11 min.
On to `CN(C)C(=O)CCSC(SCCC(=O)O)c1cccc(/C=C/c2ccc3ccc(Cl)cc3n2)c1` (stereo not shown) [MK571], for which the “Reduction of ATP-dependent transport of ^99mTc–mebrofenin (MRP2 vesicles)” value at MRP2 was 88 ± 2%.
